Some test systems named below: NCI-H23 lung; TK-10 renal; NCI-H522 lung; K-562 leukemia; SN12C renal; OVCAR-3 ovarian; UO-31 renal; RXF 393 renal; CAKI-1 renal; LOX IMVI melanoma; UACC-257 melanoma; SK-MEL-28 melanoma; NCI-H226 lung.
What all share (experiment): NCI tumour cell line growth inhibition, 48 h

Consider 14 compounds from PubChem BioAssay (NCI).

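Exposure lasted 48 hours, with cells grown in 96-well plates and compounds tested at five concentrations. Definition used: TGI = concentration required for complete inhibition of growth.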 A value given as a limit tells only on which side of the number the result lay.

`CC(Nc1ccc(Cl)c(Cl)c1)c1ccncc1` (configuration not stated): the TGI was above 100 µM with NCI-H23 lung; above 100 µM with TK-10 renal; 37 µM in the test on NCI-H522 lung; above 100 µM with K-562 leukemia; above 100 µM in the test on SN12C renal; 84.3 µM in the test with OVCAR-3 ovarian. Moreover, the TGI is 31.1 µM with UO-31 renal; 54.3 µM in the test with RXF 393 renal; 97.8 µM in the test on CAKI-1 renal; 40 µM with LOX IMVI melanoma; above 100 µM in the test with UACC-257 melanoma; above 100 µM with SK-MEL-28 melanoma. This compound came in with a TGI in the test with NCI-H226 lung of 81.6 µM.
Turning to `CCCSc1ccc2[nH]c(N3C(=O)/C(=C/c4ccc(SC)cc4)N=C3c3ccccc3)cc2c1`, the TGI was above 50 µM in the test with NCI-H23 lung; above 50 µM in the test with TK-10 renal; above 50 µM with NCI-H522 lung; 5.43 µM in the test with K-562 leukemia; above 50 µM with SN12C renal; above 50 µM in the test with OVCAR-3 ovarian. In addition, the TGI in the test with UO-31 renal is above 50 µM; in the test on RXF 393 renal, above 46.6 µM; in the test with CAKI-1 renal, above 50 µM; in the test with LOX IMVI melanoma it was above 50 µM; in the test on UACC-257 melanoma it was above 50 µM; in the test on SK-MEL-28 melanoma it was above 50 µM. Also, the TGI in the test on NCI-H226 lung was above 50 µM.
Turning to `COC(=O)c1cc(NC(=O)Cc2c[nH]c3ccccc23)cn1C`, the TGI in the test on NCI-H23 lung, in the test on TK-10 renal, with NCI-H522 lung, in the test on K-562 leukemia, in the test with SN12C renal and with OVCAR-3 ovarian was above 100 µM each time. In addition, the TGI in the test with UO-31 renal, in the test with RXF 393 renal, in the test with CAKI-1 renal, with LOX IMVI melanoma, in the test on UACC-257 melanoma and in the test on SK-MEL-28 melanoma was above 100 µM throughout. For the same compound, in the test with NCI-H226 lung, the TGI was above 100 µM.
Take `COC(C)(C)/C=C/c1[nH]c2ccccc2c1CC(=O)NCCc1cn(C(c2ccccc2)(c2ccccc2)c2ccccc2)cn1`: the TGI in the test with NCI-H23 lung is 22.9 µM; in the test on TK-10 renal, above 40.5 µM; in the test on NCI-H522 lung, 14.3 µM; with K-562 leukemia, above 36 µM; with SN12C renal it was 19.2 µM; in the test with OVCAR-3 ovarian it was above 29.2 µM. The TGI in the test on UO-31 renal was 61.8 µM; in the test on RXF 393 renal, above 100 µM; in the test on CAKI-1 renal, above 100 µM; in the test with LOX IMVI melanoma, above 51.3 µM; in the test with UACC-257 melanoma, 24.9 µM; in the test with SK-MEL-28 melanoma, 29.8 µM. In the test on NCI-H226 lung, this compound had a TGI of 10.9 µM.
`O=C1Nc2nccnc2C(=O)N2CCC[C@@H]12`: the TGI with NCI-H23 lung, in the test on TK-10 renal, in the test with NCI-H522 lung, with K-562 leukemia, with SN12C renal and in the test on OVCAR-3 ovarian was above 100 µM each time. For the same compound, the TGI with UO-31 renal, in the test with RXF 393 renal, with CAKI-1 renal, with LOX IMVI melanoma, with UACC-257 melanoma and in the test on SK-MEL-28 melanoma was above 100 µM throughout. This compound came in with a TGI in the test on NCI-H226 lung above 100 µM.
On to `Cc1cccc2sc(-c3ccc(O)cc3)nc12`, for which the TGI with NCI-H23 lung was 31.9 µM; with TK-10 renal, 42.1 µM; in the test on NCI-H522 lung it was 31.7 µM; in the test with K-562 leukemia it was above 100 µM; in the test with SN12C renal, 34.3 µM; in the test with OVCAR-3 ovarian, 29.8 µM. The TGI in the test with UO-31 renal worked out at 26.4 µM; in the test with RXF 393 renal, 32.1 µM; in the test with CAKI-1 renal it was 30.5 µM; in the test with LOX IMVI melanoma, 49.6 µM; in the test on UACC-257 melanoma, 33.1 µM; in the test with SK-MEL-28 melanoma, 33.4 µM. In the test with NCI-H226 lung, this compound gave a TGI of 34.6 µM.
As for `CC(C)=CCC[C@@H](C)C1=C(O)C(Nc2ccccc2Cl)=C(C)C(=O)C1=O`, the TGI in the test on NCI-H23 lung is 55.1 µM; in the test with TK-10 renal, above 75 µM; with NCI-H522 lung, 22.7 µM; in the test with K-562 leukemia it was above 75 µM; in the test on SN12C renal, above 75 µM; in the test with OVCAR-3 ovarian, above 75 µM. The TGI was above 49.5 µM in the test on UO-31 renal; above 50.8 µM with RXF 393 renal; above 55 µM in the test on CAKI-1 renal; above 75 µM in the test with LOX IMVI melanoma; above 75 µM in the test on UACC-257 melanoma; above 75 µM in the test with SK-MEL-28 melanoma. Further, the TGI in the test on NCI-H226 lung stood at 29.3 µM.
`CCOC(=O)NC(Nc1ccc(F)cc1)(C(=O)OCC)C(F)(F)F` (configuration not stated): the TGI in the test on NCI-H23 lung, in the test on TK-10 renal, with NCI-H522 lung, with K-562 leukemia, with SN12C renal and in the test on OVCAR-3 ovarian was above 100 µM in each case. Also, the TGI in the test with UO-31 renal, in the test on RXF 393 renal, in the test on CAKI-1 renal, in the test on LOX IMVI melanoma, with UACC-257 melanoma and with SK-MEL-28 melanoma was above 100 µM throughout. Further, the TGI with NCI-H226 lung was above 100 µM.
`CC1=CC[C@@]2(C)CC[C@](O)(C(C)C)C2C(OC(=O)c2ccccc2)C1` (some centres not stated): the TGI with NCI-H23 lung is 38.9 µM; in the test with TK-10 renal, 35.3 µM; in the test with NCI-H522 lung, 33.2 µM; in the test with K-562 leukemia, 47.8 µM; in the test with SN12C renal, 44.9 µM; with OVCAR-3 ovarian, 31.8 µM. The TGI in the test with UO-31 renal is 32.6 µM; in the test with RXF 393 renal, 27.3 µM; in the test with CAKI-1 renal, 44.9 µM; with LOX IMVI melanoma, 42 µM; with UACC-257 melanoma it was 35.1 µM; in the test on SK-MEL-28 melanoma, 58.4 µM. Further, in the test with NCI-H226 lung, the TGI was found to be 45.3 µM.
On to `CC(C)=CCCC(C)CCOS(=O)C(F)(F)F` (configuration not stated), for which the TGI in the test with NCI-H23 lung is 14 µM; in the test with TK-10 renal it was above 100 µM; in the test with NCI-H522 lung it was 5.12 µM; with K-562 leukemia, above 100 µM; in the test on SN12C renal, 41.7 µM; in the test with OVCAR-3 ovarian it was 27.8 µM. The TGI is 35.2 µM in the test with UO-31 renal; 7.57 µM in the test with RXF 393 renal; above 100 µM with CAKI-1 renal; 37.2 µM in the test on LOX IMVI melanoma; 52.9 µM in the test on UACC-257 melanoma; 34.6 µM in the test with SK-MEL-28 melanoma. In the test with NCI-H226 lung, this compound returned a TGI of 41.4 µM.
For `O=C1/C(=C/c2ccccc2[N+](=O)[O-])N=C(c2ccccc2)N1c1nc2ccccc2s1`, the TGI in the test on NCI-H23 lung is 41.4 µM; in the test with TK-10 renal, above 100 µM; in the test with NCI-H522 lung it was 40.1 µM; in the test on K-562 leukemia, 44.7 µM; with SN12C renal it was 64.3 µM; in the test with OVCAR-3 ovarian, 51.9 µM. Besides, the TGI was above 100 µM with UO-31 renal; 33.7 µM in the test on RXF 393 renal; above 100 µM with CAKI-1 renal; 56.8 µM with LOX IMVI melanoma; above 100 µM in the test with UACC-257 melanoma; above 100 µM in the test with SK-MEL-28 melanoma. In the test on NCI-H226 lung, the TGI is above 100 µM.
With `O=C1CCc2ccc(O)c(c2)Oc2ccc(cc2)C(Sc2ccccc2)CCO1` (configuration not stated), the TGI with NCI-H23 lung was found to be 27.3 µM; in the test with TK-10 renal it was 31.6 µM; in the test on NCI-H522 lung it was 27.7 µM; in the test with K-562 leukemia it was 40 µM; in the test with SN12C renal, 29.7 µM; in the test on OVCAR-3 ovarian it was 29.6 µM. Also, the TGI turned out to be 33.4 µM in the test with UO-31 renal; 35.4 µM with RXF 393 renal; 41.1 µM in the test with CAKI-1 renal; 25.8 µM in the test with LOX IMVI melanoma; 32.6 µM in the test on UACC-257 melanoma; 31.6 µM with SK-MEL-28 melanoma. Besides, the TGI with NCI-H226 lung is 30.2 µM.
With `COc1ccccc1/C=C/C1=NN(c2cccc(S(=O)(=O)O)c2)C2(C1)C(Cl)C(=O)N2c1nc2ccccc2s1` (configuration not stated), the TGI was above 100 µM in the test with NCI-H23 lung; above 100 µM in the test with TK-10 renal; above 58.8 µM in the test with NCI-H522 lung; above 100 µM in the test with K-562 leukemia; above 100 µM in the test on SN12C renal; above 100 µM in the test on OVCAR-3 ovarian. In addition, the TGI was 33.5 µM in the test on UO-31 renal; above 87 µM with RXF 393 renal; above 74.3 µM in the test on CAKI-1 renal; above 67 µM in the test on LOX IMVI melanoma; above 100 µM with UACC-257 melanoma; above 100 µM in the test with SK-MEL-28 melanoma. In the test with NCI-H226 lung, this compound returned a TGI above 100 µM.
In the case of `O=C(NNC(=S)NC1CCCCC1)C12CC3CC(CC(C3)C1)C2`, the TGI with NCI-H23 lung, in the test with TK-10 renal, with NCI-H522 lung, with K-562 leukemia, with SN12C renal and in the test with OVCAR-3 ovarian was above 100 µM each time. In addition, the TGI in the test on UO-31 renal, in the test on RXF 393 renal, in the test on CAKI-1 renal, in the test on LOX IMVI melanoma, in the test on UACC-257 melanoma and with SK-MEL-28 melanoma was above 100 µM throughout. In addition, in the test on NCI-H226 lung, the TGI was above 100 µM.
